Laboratory results from patent US20200170291A1, “PROCESSES FOR PRODUCING LACTITOL GRANULATES AND GRANULATES PRODUCED THEREBY” (PARTICLE DYNAMICS INTERNATIONAL, LLC, priority 2017, published 2020).
Values joined by “and” are separate entries in the source; they are usually repeats but may differ in a detail not shown here. Equal values may be shown once. Read-outs that look alike come from different tables or passages of the source.

Experiments:
Format in all cases: physicochemical
[1] = MALVERN MASTERSIZER 2000 particle size (d10, d50, d90)
Experimental: (§1) All particle size (PS) analyses were conducted using a ROTAP Particle Size Analyzer and a MALVERN MASTERSIZER 2000, except as otherwise indicated. All particle size data were measured in microns and analyzed via the MALVERN MASTERSIZER 2000.

[2] = ROTAP sieve particle size distribution (% retained)
Experimental: as §1
Particle Size: During the granulation process, an approximately 300 g sample is taken from material of the finished product drum starting with the first drum and every sixth drum thereafter, including the last drum (i.e. drum #1, 7, 13, 19 etc.). […] Each fraction was weighed and percent retained was calculated.

Bulk density = experiment: Bulk density
Experimental: (§2) Tapped density of the granulates of the present invention is typically at least about 0.6 g/mL, at least about 0.75 g/mL, at least about 0.80 g/mL, at least about 0.85 g/mL, or at least about 0.90 g/mL. Overall, the tapped density of the granulates of the present invention generally ranges from about 0.6 g/mL to about 1.0 g/mL, from about 0.7 g/mL to about 0.95 g/mL, or from about 0.8 g/mL to about 0.9 g/mL (e.g., about 0.85 g/mL). Bulk and tapped density as reported herein are determined by USP <616>, but it should be understood that other methods known in the art may be also be utilized to determine the tapped densities of compositions of the present invention.
(§3) Tare a 250 mL graduated glass cylinder. Fill with 100 grams of sample. Reweigh to determine weight. Record Initial Volume. The bulk density is the weight in grams divided by the volume (mL). Tap 1000 times by the automated tapping device. Read final volume. The tapped density is the weight in grams divided by the tapped volume (mL).

Tapped density = experiment: Tapped density
Experimental: as §2, §3

[3] = HANSON FLODEX powder flowability (viscosity)
From the text: Samples were also subjected to flowability testing using a HANSON FLODEX Powder Flowability tester. The basis for the method is the powders ability to fall freely through a hole in a plate. The diameter of the smallest hole through which the powder passes is considered the flowability index. The flowability index (radius of hole size in cm) along with the bulk density of the material tested are then used to determine the viscosity (internal friction coefficient) of the powder. Lower powder viscosity indicates better flowability.
Samples of the finished lactitol granulations produced during execution of the commercial optimization protocol were also evaluated for flow using the HANSON Intrinsic Flowability Test. During the test, the smallest hole (in millimeters) that the product will flow through is determined in the FLODEX apparatus. Using this information and the bulk density of each powder (as determined in a 250 mL graduated cylinder) the coefficient of friction or viscosity (K) was calculated. The viscosity K (in poises) is equal to 490 (½ the acceleration of gravity) times the radius of the hole in centimeters times the bulk density of the sample. The result K is then multiplied by 100 to express the viscosity in centipoises.

[4] = Moisture content by Karl Fischer (KF)
Experimental: As noted, lactitol exists in the monohydrate, dihydrate, trihydrate, and hexahydrate forms. Lactitol monohydrate is the preferred form of lactitol for use. Lactitol monohydrate is defined by the EU-NP and USP-NF as having moisture content of between 4.5 wt % and 5.5 wt %. As used herein, the term “moisture content” refers to the total moisture content of a composition, including both free and bound water. Moisture contents reported here are determined by the Karl-Fischer (KF) method, but may also be determined by other suitable methods known in the art.
During the weighing of the ingredients for the binder solution and during the set up for granulation, an approximately 100 g sample representing each raw material is taken and placed into an appropriately labeled container. An approximately 0.3 gram sample is dispersed in methanol and test using a Karl Fischer moisture analyzer with HYDRANAL Composite 5 titrant using a 60 sec extraction time. Percent moisture was reported.
For each Qualification lot, at the beginning and middle of each shift samples were pulled using a sample thief from three locations within the tub after granulation but before drying. These samples were tested for moisture as described above.
Moisture content was also tested using the same procedure after the second drying step.

[5] = jet mill Grinding Pressure 25 PSI, Feed Injection Pressure 20 PSI
[6] = jet mill Grinding Pressure 25 PSI, Feed Injection Pressure 40 PSI
[7] = jet mill Grinding Pressure 25 PSI, Feed Injection Pressure 60 PSI
[8] = jet mill Grinding Pressure 30 PSI, Feed Injection Pressure 20 PSI
[9] = jet mill Grinding Pressure 30 PSI, Feed Injection Pressure 40 PSI
[10] = jet mill Grinding Pressure 30 PSI, Feed Injection Pressure 60 PSI
[11] = jet mill Grinding Pressure 35 PSI, Feed Injection Pressure 20 PSI
[12] = jet mill Grinding Pressure 35 PSI, Feed Injection Pressure 40 PSI
[13] = jet mill Grinding Pressure 35 PSI, Feed Injection Pressure 60 PSI

OC[C@@H](O)[C@@H](O[C@@H]1O[C@H](CO)[C@H](O)[C@H](O)[C@H]1O)[C@H](O)[C@@H](O)CO [Drum No. 20]
PS d10 ([1]; listed as 20): 4.0 μ
PS d50 ([1]; listed as 20): 33.8 μ
PS d90 ([1]; listed as 20): 209.8 μ
Particle Size Span ([1]; listed as 20): 6.1

OC[C@@H](O)[C@@H](O[C@@H]1O[C@H](CO)[C@H](O)[C@H](O)[C@H]1O)[C@H](O)[C@@H](O)CO [Drum No. 21]
PS d10 ([1]; listed as 21): 5.0 μ
PS d50 ([1]; listed as 21): 50.8 μ
PS d90 ([1]; listed as 21): 290.2 μ
Particle Size Span ([1]; listed as 21): 5.6

OC[C@@H](O)[C@@H](O[C@@H]1O[C@H](CO)[C@H](O)[C@H](O)[C@H]1O)[C@H](O)[C@@H](O)CO [Drum No. 22]
PS d10 ([1]; listed as 22): 4.4 μ
PS d50 ([1]; listed as 22): 36.7 μ
PS d90 ([1]; listed as 22): 235.3 μ
Particle Size Span ([1]; listed as 22): 6.3

OC[C@@H](O)[C@@H](O[C@@H]1O[C@H](CO)[C@H](O)[C@H](O)[C@H]1O)[C@H](O)[C@@H](O)CO [Drum No. 24]
PS d10 ([1]; listed as 24): 5.4 μ
PS d50 ([1]; listed as 24): 53.1 μ
PS d90 ([1]; listed as 24): 289.0 μ
Particle Size Span ([1]; listed as 24): 5.3

OC[C@@H](O)[C@@H](O[C@@H]1O[C@H](CO)[C@H](O)[C@H](O)[C@H]1O)[C@H](O)[C@@H](O)CO [Drum No. 25]
PS d10 ([1]; listed as 25): 4.2 μ
PS d50 ([1]; listed as 25): 35.5 μ
PS d90 ([1]; listed as 25): 261.8 μ
Particle Size Span ([1]; listed as 25): 7.3

OC[C@@H](O)[C@@H](O[C@@H]1O[C@H](CO)[C@H](O)[C@H](O)[C@H]1O)[C@H](O)[C@@H](O)CO [Drum No. 26]
PS d10 ([1]; listed as 26): 4.4 μ
PS d50 ([1]; listed as 26): 40.8 μ
PS d90 ([1]; listed as 26): 298.4 μ
Particle Size Span ([1]; listed as 26): 7.2

OC[C@@H](O)[C@@H](O[C@@H]1O[C@H](CO)[C@H](O)[C@H](O)[C@H]1O)[C@H](O)[C@@H](O)CO [Drum No. 27]
PS d10 ([1]; listed as 27): 4.2 μ
PS d50 ([1]; listed as 27): 40.2 μ
PS d90 ([1]; listed as 27): 272.3 μ
Particle Size Span ([1]; listed as 27): '6.7

OC[C@@H](O)[C@@H](O[C@@H]1O[C@H](CO)[C@H](O)[C@H](O)[C@H]1O)[C@H](O)[C@@H](O)CO [Drum No. 28]
PS d10 ([1]; listed as 28): 4.6 μ
PS d50 ([1]; listed as 28): 40.4 μ
PS d90 ([1]; listed as 28): 263.7 μ
Particle Size Span ([1]; listed as 28): 6.4

OC[C@@H](O)[C@@H](O[C@@H]1O[C@H](CO)[C@H](O)[C@H](O)[C@H]1O)[C@H](O)[C@@H](O)CO [Drum No. 29]
PS d10 ([1]; listed as 29): 5.7 μ
PS d50 ([1]; listed as 29): 84.8 μ
PS d90 ([1]; listed as 29): 401.6 μ
Particle Size Span ([1]; listed as 29): 4.7

OC[C@@H](O)[C@@H](O[C@@H]1O[C@H](CO)[C@H](O)[C@H](O)[C@H]1O)[C@H](O)[C@@H](O)CO [Drum No. 33]
PS d10 ([1]; listed as 33): 4.1 μ
PS d50 ([1]; listed as 33): 36.6 μ
PS d90 ([1]; listed as 33): 267.6 μ
Particle Size Span ([1]; listed as 33): 7.2

OC[C@@H](O)[C@@H](O[C@@H]1O[C@H](CO)[C@H](O)[C@H](O)[C@H]1O)[C@H](O)[C@@H](O)CO [Drum No. 37]
PS d10 ([1]; listed as 37): 4.4 μ
PS d50 ([1]; listed as 37): 43.9 μ
PS d90 ([1]; listed as 37): 337.2 μ
Particle Size Span ([1]; listed as 37): 7.6

OC[C@@H](O)[C@@H](O[C@@H]1O[C@H](CO)[C@H](O)[C@H](O)[C@H]1O)[C@H](O)[C@@H](O)CO [Drum No. Last]
PS d10 ([1]; listed as Last): 4.2 μ
PS d50 ([1]; listed as Last): 39.1 μ
PS d90 ([1]; listed as Last): 341.6 μ
Particle Size Span ([1]; listed as Last): 8.6

OC[C@@H](O)[C@@H](O[C@@H]1O[C@H](CO)[C@H](O)[C@H](O)[C@H]1O)[C@H](O)[C@@H](O)CO [Jet Milled B]
Particle Size Distribution (% Retained) 12 ([2]; 12 mesh screen): 0.0%
Particle Size Distribution (% Retained) 20 ([2]; 20 mesh screen): 0.0%
Particle Size Distribution (% Retained) 40 ([2]; 40 mesh screen): 1.9%
Particle Size Distribution (% Retained) 60 ([2]; 60 mesh screen): 14.4%
Particle Size Distribution (% Retained) 80 ([2]; 80 mesh screen): 17.2%
Particle Size Distribution (% Retained) 100 ([2]; 100 mesh screen): 10.7%
Particle Size Distribution (% Retained) 200 ([2]; 200 mesh screen): 36.3%
Particle Size Distribution (% Retained) Pan ([2]; receiving pan): 19.5%
Bulk Density (Bulk density): 0.670 g/mL
Tapped Density (Tapped density): 0.933 g/mL
PS d10 [1]: 5.3 μ
PS d50 [1]: 60.0 μ
PS d90 [1]: 316.2 μ
d50 (mean particle size by volume distribution) [1]: 60 microns

OC[C@@H](O)[C@@H](O[C@@H]1O[C@H](CO)[C@H](O)[C@H](O)[C@H]1O)[C@H](O)[C@@H](O)CO [Proof of Concept]
PS d10 [1]: 5.3 μ
PS d50 [1]: 60.0 μ
PS d90 [1]: 316.2 μ
Particle Size Span [1]: 5.2

OC[C@@H](O)[C@@H](O[C@@H]1O[C@H](CO)[C@H](O)[C@H](O)[C@H]1O)[C@H](O)[C@@H](O)CO [Sample 1b]
PS d10 [1]: 5.6 μ
PS d50 [1]: 56.7 μ
PS d90 [1]: 420.9 μ
Particle Size Span [1]: 7.3

OC[C@@H](O)[C@@H](O[C@@H]1O[C@H](CO)[C@H](O)[C@H](O)[C@H]1O)[C@H](O)[C@@H](O)CO [Sample 2b]
PS d10 [1]: 5.5 μ
PS d50 [1]: 56.5 μ
PS d90 [1]: 401.2 μ
Particle Size Span [1]: 7.0

OC[C@@H](O)[C@@H](O[C@@H]1O[C@H](CO)[C@H](O)[C@H](O)[C@H]1O)[C@H](O)[C@@H](O)CO [Sample 3b]
PS d10 [1]: 7.6 μ
PS d50 [1]: 113.1 μ
PS d90 [1]: 656.4 μ
Particle Size Span [1]: 5.7

OC[C@@H](O)[C@@H](O[C@@H]1O[C@H](CO)[C@H](O)[C@H](O)[C@H]1O)[C@H](O)[C@@H](O)CO [jet milled lactitol]
viscosity (flowability) [3]: 46,905 cps
viscosity of jet milled lactitol, times higher than raw lactitol [3]: approximately 4.8 times
Particle Size Span [1, 5]: 4.2
Particle Size d10 [1, 5]: 10.8 μ
Particle Size d50 [1, 5]: 150.7 μ
Particle Size d90 [1, 5]: 646.1 μ
Particle Size Span [1, 6]: 4.6
Particle Size d10 [1, 6]: 8.5 μ
Particle Size d50 [1, 6]: 122.9 μ
Particle Size d90 [1, 6]: 585.1 μ
Particle Size Span [1, 7]: 7.2
Particle Size d10 [1, 7]: 5.5 μ
Particle Size d50 [1, 7]: 84.3 μ
Particle Size d90 [1, 7]: 619.5 μ
Particle Size Span [1, 8]: 12.7
Particle Size d10 [1, 8]: 4.5 μ
Particle Size d50 [1, 8]: 47.8 μ
Particle Size d90 [1, 8]: 615.2 μ
Particle Size Span [1, 9]: 13.7
Particle Size d10 [1, 9]: 4.5 μ
Particle Size d50 [1, 9]: 46.3 μ
Particle Size d90 [1, 9]: 640.1 μ
Particle Size Span [1, 10]: 11.1
Particle Size d10 [1, 10]: 4.5 μ
Particle Size d50 [1, 10]: 45.6 μ
Particle Size d90 [1, 10]: 513.0 μ
Particle Size Span [1, 11]: 17.5
Particle Size d10 [1, 11]: 4.1 μ
Particle Size d50 [1, 11]: 36.0 μ
Particle Size d90 [1, 11]: 635.0 μ
Particle Size Span [1, 12]: 6.5
Particle Size d10 [1, 12]: 5.8 μ
Particle Size d50 [1, 12]: 83.4 μ
Particle Size d90 [1, 12]: 548.6 μ
Particle Size Span [1, 13]: 5.4
Particle Size d10 [1, 13]: 7.6 μ
Particle Size d50 [1, 13]: 110.9 μ
Particle Size d90 [1, 13]: 611.9 μ

OC[C@@H](O)[C@@H](O[C@@H]1O[C@H](CO)[C@H](O)[C@H](O)[C@H]1O)[C@H](O)[C@@H](O)CO [milled lactitol]
KF moisture [4]: 5.05% and 4.99%
